This note sets out measurements from ChEMBL document CHEMBL1153677, “A novel series of 2-aminotetralins with high affinity and selectivity for the dopamine D3 receptor” (Bioorg Med Chem Lett, 1997).

One test addresses D(2) dopamine receptor (Homo sapiens, UniProt P14416). In words: Displacement of [125I]iodosulpiride from human Dopamine receptor D2 expressed in CHO cells. In kind it is cell-based.
For another test, the target named is D(3) dopamine receptor (Homo sapiens, UniProt P35462). Description: Displacement of [125I]iodosulpiride from human Dopamine receptor D3 expressed in CHO cells. It counts as cell-based. Background: Loss of bound radioactivity is the signal in a displacement assay; it reports binding, not function.
The target of test [1] is T1, 5-hydroxytryptamine receptor 1A (Mus musculus, UniProt Q64264).
T1 sequence (Q64264 whole entry): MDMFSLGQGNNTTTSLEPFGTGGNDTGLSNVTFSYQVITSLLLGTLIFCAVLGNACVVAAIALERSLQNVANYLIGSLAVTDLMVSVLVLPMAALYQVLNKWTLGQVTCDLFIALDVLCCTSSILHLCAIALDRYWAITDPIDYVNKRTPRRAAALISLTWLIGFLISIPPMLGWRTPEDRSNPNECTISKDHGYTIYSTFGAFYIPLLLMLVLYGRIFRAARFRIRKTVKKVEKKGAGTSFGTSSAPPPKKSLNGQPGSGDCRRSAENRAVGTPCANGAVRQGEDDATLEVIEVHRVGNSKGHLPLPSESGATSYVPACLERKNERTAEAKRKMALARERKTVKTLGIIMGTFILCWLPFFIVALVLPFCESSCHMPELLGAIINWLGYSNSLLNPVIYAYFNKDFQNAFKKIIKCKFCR
In words: Ability to displace [125I]iodosulpiride from 5-hydroxytryptamine 1A receptor.

Sequence of D(2) dopamine receptor (P14416 whole entry): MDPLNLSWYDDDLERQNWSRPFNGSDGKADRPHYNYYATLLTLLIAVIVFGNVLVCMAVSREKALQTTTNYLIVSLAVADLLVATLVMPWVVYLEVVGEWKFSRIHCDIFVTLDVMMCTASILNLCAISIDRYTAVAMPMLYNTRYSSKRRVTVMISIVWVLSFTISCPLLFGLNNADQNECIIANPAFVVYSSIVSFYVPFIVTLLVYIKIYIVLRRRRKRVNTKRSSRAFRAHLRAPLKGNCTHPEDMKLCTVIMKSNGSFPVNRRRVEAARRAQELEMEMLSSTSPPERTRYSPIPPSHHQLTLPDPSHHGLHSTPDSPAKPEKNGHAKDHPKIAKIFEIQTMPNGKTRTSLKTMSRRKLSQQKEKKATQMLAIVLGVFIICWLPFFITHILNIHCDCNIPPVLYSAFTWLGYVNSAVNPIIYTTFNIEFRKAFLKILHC
Sequence of D(3) dopamine receptor (P35462 whole entry): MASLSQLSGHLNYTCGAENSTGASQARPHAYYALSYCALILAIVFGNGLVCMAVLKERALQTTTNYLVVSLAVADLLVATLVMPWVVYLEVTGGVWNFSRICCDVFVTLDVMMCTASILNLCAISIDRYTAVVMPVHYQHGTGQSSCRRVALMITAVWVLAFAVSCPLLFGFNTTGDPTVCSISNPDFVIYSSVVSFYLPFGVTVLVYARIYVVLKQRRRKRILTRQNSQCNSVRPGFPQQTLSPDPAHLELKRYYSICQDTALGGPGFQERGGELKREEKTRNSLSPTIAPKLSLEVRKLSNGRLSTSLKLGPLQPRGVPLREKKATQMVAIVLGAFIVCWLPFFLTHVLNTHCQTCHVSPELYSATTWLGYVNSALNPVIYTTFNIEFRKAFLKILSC

What is called Ki is the equilibrium dissociation constant of an inhibitor or competing ligand from its target. Higher therefore signals lower affinity. For `CCCN(CCCCNC(=O)c1ccc(-c2ccccc2)cc1)C1CCc2c(cccc2OS(C)(=O)=O)C1` (stereo not given), the Ki at D(2) dopamine receptor was 251 nM; at D(3) dopamine receptor it was 1.26 nM.

Regarding `COc1ccccc1N1CCN(CCCCNC(=O)c2ccc(-c3ccc(C(C)=O)cc3)cc2)CC1`, affinity in test [1] was put at a Ki of 3.16 nM. Turning to `CCCN(CCCCNC(=O)c1ccc(-c2ccccc2)cc1)C1CCc2c(C#N)cccc2C1` (stereo not given), the Ki on D(2) dopamine receptor is 100 nM; at D(3) dopamine receptor, 0.501 nM. The like results for `CCCN(CCCCNC(=O)c1ccc(-c2ccccc2)cc1)C1CCc2c(Cl)cccc2C1` (stereo not given) were, in that order, 398 nM and 1.58 nM. The like results for `CCCN(CCCCNC(=O)c1ccc(-c2ccccc2)cc1)C1CCc2c(cccc2OS(=O)(=O)C(F)(F)F)C1` (stereo not given) were, in that order, 398 nM and 1.58 nM.

For `CCCN(CCCCNC(=O)c1ccc(-c2ccccc2)cc1)C1CCc2c(O)cccc2C1` (stereo not given), the Ki at D(2) dopamine receptor is 25.1 nM; at D(3) dopamine receptor it was 0.2 nM. On the same counts, the results for `COc1cccc2c1CCC(N(C)CCCCNC(=O)c1ccc(-c3ccccc3)cc1)C2` (stereo not given) are 316 nM and 12.6 nM. For `CN(CCCCNC(=O)c1ccc(-c2ccccc2)cc1)C1CCc2c(O)cccc2C1` (stereo not given), the Ki at D(2) dopamine receptor is 126 nM; at D(3) dopamine receptor, 2.51 nM. On the same counts, the results for `CCCN(CCCCNC(=O)c1ccc(-c2ccccc2)cc1)C1CCc2c(cccc2C(N)=O)C1` (stereo not given) are 631 nM and 3.98 nM. With `CCCN(CCCCNC(=O)c1ccc(-c2ccccc2)cc1)C1CCc2c(Br)cccc2C1` (stereo not given), the results for the Ki on D(2) dopamine receptor and at D(3) dopamine receptor were 251 nM and 1.26 nM, respectively.

On to `CCCN(CCCCNC(=O)c1ccc(-c2ccccc2)cc1)C1CCc2ccccc2C1` (stereo not given), for which the Ki is 316 nM at D(2) dopamine receptor and 1.58 nM on D(3) dopamine receptor. On the same counts, the results for `CCCN(CCCCNC(=O)c1ccc(-c2ccccc2)cc1)C1CCc2c(cccc2OCC2CC2)C1` (stereo not given) are 794 nM and 2.51 nM. Regarding `CCCN(CCCCNC(=O)c1ccc(-c2ccccc2)cc1)C1CCc2c(cccc2OC)C1` (stereo not given), the results for the Ki on D(2) dopamine receptor and on D(3) dopamine receptor were 126 nM and 0.794 nM, respectively.
